The subject of data set [1] is mouse neural stem cells. Briefly: Real-time RT-PCR of neuronal / dopaminergic markers in cultured neural stem cells. Format: cell-based. The note with it: 4 days; for Tuj1 (marker of neurons) expression / tyrosine hydroxylase (TH) expression: AS703026, AZD8330 10 μM, PD318088, Trametinib, Refametinib 1 μM; for Tuj1 (marker of neurons) expression: FIG. 8B; for tyrosine hydroxylase (TH) expression: FIG. 8C. The procedure:
Neural stem cells were isolated from the brain of a day 14.5 mouse embryo, treated with 10 ng/ml human basic fibroblast growth factor (bFGF) (Peprotech, Princeton, N.J.) and 20 ng/ml human epidermal growth factor (EGF) (Peprotech) in a N2 culture medium, and cultured in suspension in a 25 cm^2 flask (Nunc, Pittsburgh, Pa.) for 4 days.
Neurospheres were treated with TrypLE and then separated into single cells, which were uniformly seeded into a culture dish coated with 15 μg/ml poly-L-ornithine and 10 μg/ml fibronectin. Following culture, the morphology of the cells was observed.
The N2 culture medium was Dulbecco's modified Eagle's medium (DMEM)/F12 (1:1) supplemented with 100 μM putrescine, 30 nM selenite, 20 nM progesterone, 1.55 mg/ml d-(+)-glucose, 25 μg/ml insulin, […] apo-transferrin, 0.5 mM alanyl glutamine, 100 IU/ml penicillin, and 100 μg/ml streptomycin.
(§1) Mouse neural stem cells were cultured in accordance with the procedure of Example 1. […] The cells were cultured for 4 days.
(§2) Neurospheres were treated with TrypLE and separated into single cells, which were uniformly seeded into a culture dish coated with 15 μg/ml poly-L-ornithine and 10 μg/ml fibronectin. Following culture, the morphology of the cells was observed.
To this end, real-time (RT) PCR analysis was performed on neuron-specific markers. On day 4 after in vitro differentiation, mRNA expression was identified. The numbers in the graph indicate average values of mRNA expression levels relative to the respective controls from real-time PCR analyses in triplicate.
(§3) In this example, it was confirmed whether dopaminergic neurons were differentiated from neural stem cells.
For orientation: Real-time PCR tracks product formation cycle by cycle.

The subject of data set [2] is mouse neural stem cells. Description: Apoptosis analysis by annexin-V/PI flow cytometry. It counts as cell-based. The note with it: 10 μM, 4 days. Here is the method:
Finally, the number of the cells was counted using a FACS Calibur flow cytometer (BD Biosciences, USA). Apoptosis was analyzed as follows. The cells were washed twice with cold PBS, treated with propidium iodide (PI) and Annexin V FITC at room temperature, and cultured for 15 min. PI and FITC fluorescence intensities were measured using a FACS flow cytometer. Data were analyzed with the Cell-quest FACS analysis software (BD Biosciences). The results are shown in FIGS. 2A, 2B, 2C, 3A, 3B and 3C. FIGS. 2A, 2B, 2C, 3A, 3B and 3C show the results of flow cytometry for the neural progenitor cells (undifferentiated; UD) cultured in Example 1, the differentiated cells (D) cultured in Comparative Example 1, and the AS703026-treated cells (UD+AS) cultured in Example 2 to identify the cycles of the cells. Specifically, FIGS. 2A, 2B and 2C are histograms showing the results of flow cytometry for the cells stained with PI. FIGS. 3A, 3B and 3C are scatter plot diagrams showing the results of flow cytometry for the cells stains with annexin-V/PI.

For data set [3], the system named is ventral midbrains of embryos of pregnant mouse models. Briefly: Intraperitoneal administration to pregnant mice; marker expression in embryonic ventral midbrains (immunocytochemistry, RT-PCR). Format: in vivo. The procedure:
After the same amount of distilled water (D.W) as control was administered intraperitoneally to pregnant mouse models at 10.5 days of gestation daily for 4 consecutive days, the expression levels of the markers in the ventral midbrains, where dopaminergic neurons were most abundantly distributed, were analyzed. The control is marked as “Vehicle” in FIGS. 6 and 7.
Proteins and mRNAs isolated from the brains of the sacrificed embryos were analyzed by RT-PCR.

The subject of data set [4] is mouse neural stem cells. Description: Cell cycle analysis by PI staining and flow cytometry. Format: cell-based. The note with it: 10 μM, 4 days; PI staining; FIG. 2C. The procedure:
Specifically, the cell cycles were analyzed by the following procedure. First, the cells (Example 1, Example 2, and Comparative Example 1) were washed twice with cold PBS and fixed in cold 70% ethanol for 30 min. The ethanol was removed by centrifugation, the cells were suspended, and the number of the cells was adjusted to 10^6/ml. The cells were washed twice with PBS, treated with 50 μg/ml propidium iodide (PI) at room temperature in the presence of RNase, and cultured for 30 min. Finally, the number of the cells was counted using a FACS Calibur flow cytometer (BD Biosciences, USA). Apoptosis was analyzed as follows. The cells were washed twice with cold PBS, treated with propidium iodide (PI) and Annexin V FITC at room temperature, and cultured for 15 min. PI and FITC fluorescence intensities were measured using a FACS flow cytometer. Data were analyzed with the Cell-quest FACS analysis software (BD Biosciences). The results are shown in FIGS. 2A, 2B, 2C, 3A, 3B and 3C. FIGS. 2A, 2B, 2C, 3A, 3B and 3C show the results of flow cytometry for the neural progenitor cells (undifferentiated; UD) cultured in Example 1, the differentiated cells (D) cultured in Comparative Example 1, and the AS703026-treated cells (UD+AS) cultured in Example 2 to identify the cycles of the cells. […]
On the technique in general: A flow cytometer gives signals particle by particle.

In data set [5] the test system is mouse neural stem cells. Description: Immunoblot analysis of marker expression in cultured neural stem cells. Format: cell-based. The procedure: Mouse neural stem cells were cultured in accordance with the procedure of Example 1. […] The cells were cultured for 4 days. Neurospheres were treated with TrypLE and separated into single cells, which were uniformly seeded into a culture dish coated with 15 μg/ml poly-L-ornithine and 10 μg/ml fibronectin. Following culture, the morphology of the cells was observed. In this example, it was confirmed whether dopaminergic neurons were differentiated from neural stem cells. To this end, immunoblot analysis and immunocytochemical analysis were performed on the neural progenitor cells (undifferentiated; UD) cultured in Example 1, the differentiated cells (D) cultured in Comparative Example 1, and the AS703026-treated cells (UD+AS) cultured in Example 2, and the results were compared. The immunoblot analysis was performed by the following procedure. First, the cells were washed with ice-cold phosphate-buffered saline (PBS) and lysed with 1×RIPA buffer (10 mM HEPES, 1.5 mM MgCl2, 10 mM KCl, 0.01 M DTT, protease inhibitors, pH 7.9). The cell homogenate was heated at 100° C. for 10 min and subjected to 10-12% SDS-polyacrylamide gel electrophoresis. Proteins were electrophoretically transferred to a nitrocellulose membrane and blocked with 5% non-fat dry milk in TBS-Tween 20 (0.1%, v/v) for 1 h. Western blotting was performed using anti-Tuj1, anti-GFAP or anti-MBP antibodies and successively horseradish peroxidase-conjugated anti-rabbit or anti-mouse IgG secondary antibodies. The protein bands were visualized using enhanced chemiluminescence (ECL, lab made) and detected with LAS-3000 (FUJIFILM, Tokyo, Japan). FIGS. 4 and 5 show the results of immunoblot analysis (FIG. 4) and immunocytochemical analysis (FIG. 5) for the neural progenitor cells (undifferentiated; UD) cultured in Example 1, the differentiated cells (D) cultured in Comparative Example 1, and the AS703026-treated cells (UD+AS) cultured in Example 2 to determine whether dopaminergic neurons were differentiated from the neural stem cells. […] The AS703026-treated cells were cultured in the same manner as in Example 2. […]
A general note: In western blotting, separated proteins are transferred to a membrane and probed.

Data set [6] concerns mouse neural stem cells. Description: Immunocytochemical analysis of marker expression in cultured neural stem cells. Format: cell-based. The note with it: 10 μM, 4 days. Here is the method: Mouse neural stem cells were cultured in accordance with the procedure of Example 1. […] The cells were cultured for 4 days. Neurospheres were treated with TrypLE and separated into single cells, which were uniformly seeded into a culture dish coated with 15 μg/ml poly-L-ornithine and 10 μg/ml fibronectin. Following culture, the morphology of the cells was observed. […] In this example, it was confirmed whether dopaminergic neurons were differentiated from neural stem cells. To this end, immunoblot analysis and immunocytochemical analysis were performed on the neural progenitor cells (undifferentiated; UD) cultured in Example 1, the differentiated cells (D) cultured in Comparative Example 1, and the AS703026-treated cells (UD+AS) cultured in Example 2, and the results were compared. The immunocytochemical analysis was performed by the following procedure. First, the cells were fixed in 4% para-formaldehyde at room temperature for 10 min, washed with PBS, and incubated with 0.2% Triton X-100 at room temperature for 15 min. After blocking with 10% BSA at room temperature for 1 h, the cells were incubated with anti-Tuj1 (Covance, Princeton, N.J.), anti-GFAP (Biogenex, San Ramon, Calif.), anti-MBP (Abcam), anti-Ki67 (Abcam), anti-p-ERK1/2 or anti-TH antibodies at 4° C. overnight, and cultured using Alexa Fluor 488- or Alexa Fluor 555-conjugated IgG secondary antibodies (Molecular Probes, Eugene, Oreg.) at room temperature for 1 h. Subsequently, the cells were cultured with 1 μg/ml 4′,6-diamidino-2-phenylindole (DAPI) for 5 min, the inlet was sealed with a coverslip, and the cells were observed using a confocal microscope. FIGS. 4 and 5 show the results of immunoblot analysis (FIG. 4) and immunocytochemical analysis (FIG. 5) for the neural progenitor cells (undifferentiated; UD) cultured in Example 1, the differentiated cells (D) cultured in Comparative Example 1, and the AS703026-treated cells (UD+AS) cultured in Example 2 to determine whether dopaminergic neurons were differentiated from the neural stem cells.

In data set [7] the test system is mouse neural stem cells. Briefly: Morphological analysis of treated neural stem cells. It counts as cell-based. The note with it: AS703026, AZD8330 10 μM; PD318088, Trametinib, Refametinib 1 μM; 4 days; FIG. 8A. The procedure:
as §1, §2, §3

For a further data set, the system named is neural stem cells. Briefly: Differentiation of neural stem cells into dopaminergic neurons (general statements, no separate method). It counts as cell-based, mouse. To be noted: MEK 1 inhibitor, no MEK 2 inhibition.
Where [8] appears, read: i.p. to pregnant mice from 10.5 days of gestation, daily for 4 days, vs distilled water.

The structures appear in SMILES notation. Counter-ions that a name gives are not always drawn.

As for `O=C(NC[C@H](O)CO)c1ccncc1Nc1ccc(I)cc1F` [AS703026, N-[(2S)-2,3-dihydroxypropyl]-3-[(2-fluoro-4-iodophenyl)amino]isonicotinamide hydrochloride], in the data set on mouse neural stem cells [1] (10 μM, compared with Tuj1), the “expression level of GFAP (astrocyte differentiation factor)” value is on record as “lower than that of Tuj1” and the “expression level of MBP (oligodendrocyte differentiation factor)” value was “lower than that of Tuj1”. The “expression level of Tuj1 (neuronal differentiation factor), times higher than UD and D cells” value in the data set with mouse neural stem cells [1] (10 μM, vs undifferentiated (UD) and differentiated (D) cells, FIG. 1A) is “at least 10 times”. Besides, in the data set on mouse neural stem cells [1], the “Tuj1 (marker of neurons) expression” value is recorded as “expressed only” and the “tyrosine hydroxylase (TH) expression” value was “expressed only”. Moreover, the apoptosis entry with mouse neural stem cells [2] is “does not induce apoptosis”. The “number of dopaminergic neurons formed in embryo brains vs non-administered animals” value in data set [3] (i.p. to pregnant mice at 10.5 days of gestation) is recorded as “approximately twice as large”. In data set [3] (setting [8]), the “expression level of TH in embryo brains vs control” value is on record as “significantly higher” and the “expression level of Tuj1 in embryo brains vs control” value is recorded as “significantly higher”. Further, in data set [3] (i.p. to pregnant mice, 4 days), the “immune response to GFAP in embryo brains” value is “No immune responses” and the “immune response to MBP in embryo brains” value is recorded as “No immune responses”. Further, the “differentiation into dopaminergic neurons in embryos (RT-PCR)” value in data set [3] (i.p. to pregnant mice, 4 days, FIG. 7) is “increased differentiation”. Also, in the data set on mouse neural stem cells [4], the cell cycle entry is listed as “arrested in the G0/G1 phase”. Besides, the “expression pattern of TH compared with cells of Example 2 (10 μM)” value with mouse neural stem cells [5] (1 μM (UD+AS, 1)) is on record as “similar”. In addition, in the data set with mouse neural stem cells [5] (5 μM (UD+AS, 5)), the “expression pattern of TH compared with cells of Example 2 (10 μM)” value is reported as “similar”. Besides, the “tyrosine hydroxylase (TH) expression, immunoblot” value in the data set on mouse neural stem cells [5] (10 μM, 4 days, vs UD and D cells, FIG. 4) is “expressed only”. In the data set with mouse neural stem cells [6], the “immune response to GFAP” value is “No immune responses” and the “immune response to MBP” value is “No immune responses”. In addition, in the data set on mouse neural stem cells [6] (FIG. 1B), the “number of clusters of dopaminergic neurons from which neurites extended outward” value is “increase” and the “number of dopaminergic neurons differentiated (Tuj1 immunocytochemistry)” value is on record as “considerable increase”. Besides, in the data set on mouse neural stem cells [6] (vs UD and D cells, FIG. 5), the “tyrosine hydroxylase (TH) expression, immunocytochemistry” value was “expressed only”. Also, the “morphology of treated cells” value in the data set with mouse neural stem cells [7] is listed as “neuron-like morphological changes”.
Take `Cc1cc(C(=O)NOCCO)c(Nc2ccc(I)cc2F)n(C)c1=O` [AZD8330]: in the data set on mouse neural stem cells [1], the “Tuj1 (marker of neurons) expression” value is “expressed only” and the “tyrosine hydroxylase (TH) expression” value is reported as “expressed only”. In addition, the “morphology of treated cells” value in the data set on mouse neural stem cells [7] is on record as “neuron-like morphological changes”.
On to `COc1cccc(-c2cc(=O)c3ccccc3o2)c1N` [PD98059], for which, in the data set on neural stem cells, the “induction of differentiation of neural stem cells into dopaminergic neurons” value was “does not induce substantial differentiation”.
As for `O=C(NOCC(O)CO)c1cc(Br)c(F)c(F)c1Nc1ccc(I)cc1F` (centres unmarked) [PD318088], in the data set with mouse neural stem cells [1], the “Tuj1 (marker of neurons) expression” value is on record as “expressed only” and the “tyrosine hydroxylase (TH) expression” value is on record as “expressed only”. Further, the “morphology of treated cells” value in the data set with mouse neural stem cells [7] is on record as “neuron-like morphological changes”.
Turning to `COc1cc(F)c(F)c(Nc2ccc(I)cc2F)c1NS(=O)(=O)C1(C[C@H](O)CO)CC1` [Refametinib], in the data set on mouse neural stem cells [1], the “Tuj1 (marker of neurons) expression” value was “expressed only” and the “tyrosine hydroxylase (TH) expression” value is “expressed only”. In addition, the “morphology of treated cells” value in the data set with mouse neural stem cells [7] is on record as “neuron-like morphological changes”.

(Values after patent US10179132B2, “Composition for inducing differentiation of multipotent neural stem cells into dopaminergic neurons and method for inducing differentiation of multipotent neural stem cells into dopaminergic neurons by using the same” (INDUSTRY-ACADEMIC COOPERATION FOUNDATION, YONSEI UNIVERSITY, priority 2015, dated 2019).)
